{"source": "patent US20150265644A1", "about": "“THERAPEUTIC METHODS AND COMPOSITIONS FOR TREATING DIABETES UTILIZING DITERPENOID COMPOUNDS” (Orient Europharma Co., Ltd., priority 2014, published 2015)", "key": {"[1]": {"experiment": "Plasma glucose after single intraperitoneal injection in mice", "type": "in vivo", "settings": "60 min; for dose giving significant decrease of plasma glucose level: single i.p. dose; for plasma glucose level: 0.1-10 mgkg^−1 i.p., dose-dependent", "method": "The 4-week-old male ICR mice were purchased from the Animal Center of the College of Medicine, National Taiwan University (Taipei, Taiwan) with delicate humane care. This animal study was conducted by following the University ethical guidelines and the ‘Guide for the Care and Use of Laboratory Animals’ published by the US National Institutes of Health (NIH publication no. 85-23, revised 1996). The animal experiments were approved by the Institutional Animal Care and Use Committee (IACUC) of the National Taiwan University (IACUC No. 20110073). Animals were housed in a room at the constant temperature, 22±1° C., with 12 hours light and dark cycles.\nAfter three days of acclimatization, the mice had free access to a standard rodent chow (normal mice), a standard rodent chow after single 250 mgkg^−1 streptozotocin (STZ) intraperitoneal injection (TIDM mice), and a fat-rich chow diet and fructose-sweetened water (T2DM mice) for 4 weeks. The induction of Type 1 DM was assessed and confirmed when the mice had plasma glucose levels ≧350 mgdL^−1, accompanied with polyuria, hyperphagia and decreased body weight. The induction Type 2 DM in the mice was assessed by measuring fasting plasma glucose levels and confirmed when plasma glucose level was ≧150 mgdL^−1 after the 4-week induction. The animals were assigned randomly into three groups, with seven animals in each group. In group I, the mice were treated with vehicle, 2% DMSO in normal saline, as the negative control. In group II, the mice were intraperitoneally treated with borapetoside A (0.1-10 mgkg^−1). In […], the mice received intraperitoneally metformin (300 mgkg^−1; Sigma Chemical Co., St. Louis, Mo., U.S.A.) or insulin (0.5 IUkg^−1; Insulin Actrapid® HM; Novo Nordisk, Denmark). In the acute study, mice under anesthesia received a single intraperitoneal administration of borapetoside A, negative control, or positive control. In the subacute study, mice received intraperitoneal administrations of borapetoside A, vehicle, or insulin twice a day for seven days.\nBlood samples were collected from the orbital vascular plexus of the mice under anesthesia. Blood samples were then centrifuged at 13000 rpm for 5 min, and the plasma samples were collected and kept on ice prior to the assay. The plasma glucose concentration was measured by Glucose Kit Reagent (Biosystems S.A., Barcelona, Spain) following the manufacturer's instructions, and the insulin levels were estimated using mouse insulin ELISA kit (Mercodia AB, Uppsala, Sweden)."}, "phospho-Akt (Ser^473)": {"test_system": "phospho-Akt (Ser^473)", "experiment": "Western blot of liver, phospho-Akt", "type": "in vivo", "settings": "mice with type 1 DM, 10 mgkg^−1 i.p. twice a day for 7 days", "method": "After three days of acclimatization, the mice had free access to a standard rodent chow (normal mice), a standard rodent chow after single 250 mgkg^−1 streptozotocin (STZ) intraperitoneal injection (TIDM mice), and a fat-rich chow diet and fructose-sweetened water (T2DM mice) for 4 weeks. The induction of Type 1 DM was assessed and confirmed when the mice had plasma glucose levels ≧350 mgdL^−1, accompanied with polyuria, hyperphagia and decreased body weight. The induction Type 2 DM in the mice was assessed by measuring fasting plasma glucose levels and confirmed when plasma glucose level was ≧150 mgdL^−1 after the 4-week induction. […]\nWestern blot analysis was carried out by known methods with a slight modification. […] After centrifuging the homogenates at 10,000 g for 30 minutes, the protein concentrations were determined by using a BCA Protein Assay Kit (Pierce Biotechnology, Rockford, Ill.). […] The membranes were analysed by using the antibodies against phospho-insulin receptor β (IRβ) (Tyr^1345), phospho-Akt (Ser^473), phosphor-AS160 (Thr^642), AS160 (Cell Signaling Technology, Beverly, Mass.), IRβ, Akt, β-Actin (Santa Cruz Biotechnology, Santa Cruz, Calif.), GLUT2 (Abcam, Cambridge, UK), and PEPCK (a gift from Professor D K Granner), respectively. […] The intensity of each band was quantified with ImageQuant."}}}
{"smiles": "C[C@@]12C[C@@H](c3ccoc3)OC(=O)[C@@H]1C[C@@H]1OC(=O)[C@@]3(O)[C@@H](O[C@@H]4O[C@H](CO)[C@@H](O)[C@H](O)[C@H]4O)CC[C@@H]2[C@@]13C", "note": "[borapetoside A]", "values": [{"measurement": "dose giving significant decrease of plasma glucose level", "setting": "[1]; mice with type 2 DM", "result": "higher than 0.3 mgkg^−1"}, {"measurement": "plasma glucose level", "setting": "[1]; normal mice", "result": "lowered"}, {"measurement": "dose giving significant decrease of plasma glucose level", "setting": "[1]; normal mice", "result": "≥ 1", "unit": "mgkg^−1"}, {"measurement": "plasma glucose level", "setting": "[1]; type 1 DM mice", "result": "lowered"}, {"measurement": "plasma glucose level", "setting": "[1]; type 2 DM mice", "result": "lowered"}, {"measurement": "phosphorylated Akt in liver", "setting": "phospho-Akt (Ser^473)", "result": "increased"}]}
